Assay results from patent US4835150A, “Cephem compounds” (Beecham Group p.l.c., priority 1985, dated 1989).

Legend:
Type in all cases: cell-based
[1] = test system: Pseudomonas aeruginosa K79961; assay: MIC by serial dilution in Iso-Sensitest Agar, P. aeruginosa K79961; details: 24 h, overnight at 37° C.
Description: (§1) Minimum Inhibitory Concentration (MIC) values of compounds of the invention against P. mirabilis C977, S. marcescens US 32, and P. aeruginosa K79961 were determined by serial dilution in Iso-Sensitest Agar (from Oxiod Ltd., Basinstoke, England). The plates were inoculated with […] colony forming units and incubated overnight at 37° C. The MIC values recorded in Table 1 were the lowest concentration of antibiotic to inhibit growth. Comparative data for sodium 7β[2-(3,4-diacetoxyphenyl)-2-[(4-ethyl-2,3-dioxopiperazin-1yl)carbonylamino]acetomido]-7α-formamido-3-[(2-methyl-1,3,4-thiadiazol-5yl)thiomethyl]ceph-3em-4-carboxylate (Compound A), disclosed in European Patent Application No. 82303821.1 (Publication No. 0 071 395) are also given.

[2] = test system: Proteus mirabilis C977; assay: MIC by serial dilution in Iso-Sensitest Agar, P. mirabilis C977; details: 24 h, overnight at 37° C.
Description: as §1

[3] = test system: Serratia marcescens US 32; assay: MIC by serial dilution in Iso-Sensitest Agar, S. marcescens US 32; details: US32, 24 h, overnight at 37° C.
Description: as §1

SMILES	MIC [1] [µg/mL]	MIC [2] [µg/mL]	MIC [3] [µg/mL]
CCN1CCN(C(=O)N[C@@H](C(=O)N[C@]2(NC=O)C(=O)N3C(C(=O)O)=C(CSc4nncs4)CS[C@@H]32)c2ccc(OC(C)=O)c(OC(C)=O)c2)C(=O)C1=O [Example 1, Sodium 7β-[D-2-(3,4-Diacetoxyphenyl)-2-[(4-ethyl-2,3-dioxopiperazin-1-yl)carbonylamino]acetamido]-7α-formamido-3-[(1,3,4-thiadiazol-2-yl)thiomethyl]ceph-3-em-4-carboxylate]	0.25	1	0.25
CCN1CCN(C(=O)NC(C(=O)N[C@]2(NC=O)C(=O)N3C(C(=O)O)=C(CSc4nnc(C)s4)CS[C@@H]32)c2ccc(OC(C)=O)c(OC(C)=O)c2)C(=O)C1=O (stereo partly drawn) [Compound A, sodium 7β[2-(3,4-diacetoxyphenyl)-2-[(4-ethyl-2,3-dioxopiperazin-1yl)carbonylamino]acetomido]-7α-formamido-3-[(2-methyl-1,3,4-thiadiazol-5yl)thiomethyl]ceph-3em-4-carboxylate, reference compound]	2	4	1
CCN1CCN(C(=O)N[C@@H](C(=O)N[C@]2(NC=O)C(=O)N3C(C(=O)O)=C(CSc4nncs4)CS[C@@H]32)c2ccc(O)c(O)c2)C(=O)C1=O [Example 2, Sodium 7β-[D-2-(3,4-Dihydroxyphenyl)-2-[(4-ethyl-2,3-dioxopiperazin-1-yl)carbonylamino]acetamido]-7α-formamido-3-[(1,3,4-thiadiazol-2-yl)thiomethyl]ceph-3-em-4-carboxylate]	0.5	1	0.12
